From article PMC9675574 (JCI Insight, 2022)

How the values were obtained:
Format in all cases: biochemical
[1] = target: T1, human trypsin isoform PRSS1 (cationic trypsin), recombinant (Homo sapiens, UniProt P07477); test: Competitive inhibition kinetics of trypsin, GPR-pNA substrate; details: for kcat: GPR-pNA, 24°C; for Ki: Ki benzamidine, mean ± SD, n = 3
T1 construct: made in house; host or cells: Escherichia coli BL21(DE3)
Method: (§1) Recombinant human and mouse trypsinogens were expressed in Escherichia coli BL21(DE3) (Invitrogen), refolded in vitro, and purified by ecotin affinity chromatography (Pharmacia FPLC), according to published protocols ([60], [63], [64]). Sulfated human trypsinogens were purified from archived samples of human pancreatic juice, as described previously, with minor modifications ([65], [66]). Briefly, 50 mg freeze-dried pancreatic juice was dissolved in 2 mL 10 mM HCl, clarified by centrifugation (21,000g, 5 minutes, 4°C), and loaded onto a MonoQ 5/50 GL column equilibrated with 20 mM Tris-HCl (pH 8.0). Proteins were eluted with a 0–0.5 M NaCl gradient at 1 mL/min flow rate for 30 minutes. The fractions containing the cationic and anionic trypsinogens were further purified with ecotin affinity chromatography. The concentration of trypsinogen preparations was estimated from their UV absorbance at 280 nm using the extinction coefficients reported previously for mouse trypsinogens ([64]) and 37,525, 38,890, and 41,535/M/cm for human cationic trypsinogen (PRSS1), anionic trypsinogen (PRSS2), and mesotrypsinogen (PRSS3), respectively. To activate trypsinogen to trypsin, approximately 1 μM solution was incubated at 37°C with 28.2 ng/mL human enterokinase (final concentration) in 0.1 M Tris-HCl (pH 8.0), 10 mM CaCl2, and 0.05% Tween 20 for 1 hour. The activation reaction was followed by measuring trypsin activity: 2 μL trypsin was diluted in 48 μL assay buffer [0.1 M Tris-HCl (pH 8.0), 1 mM CaCl2, and 0.05% Tween 20], and 150 μL of 200 μM GPR-pNA trypsin substrate (in assay buffer) was added. Substrate cleavage resulting in the release of the yellow p-nitroaniline was monitored for 1 minute in a Spectramax Plus 384 microplate reader at 405 nm.
(§2) Michaelis-Menten kinetic parameters of trypsin isoforms were determined with the chromogenic substrate GPR-pNA at 24°C. The trypsin concentration was 1 nM and the substrate concentration was varied typically between 1.56 and 200 μM in a final volume of 200 μL assay buffer. The substrate concentration range was 3.1–400 μM for mouse trypsin isoform T7 and 0.4–50 μM for mouse trypsin isoform T20. Km and kcat values were calculated from hyperbolic fits to plots of reaction velocity versus substrate concentration.
(§3) Michaelis-Menten kinetic parameters were then measured after adding 100 μL trypsin substrate, as described above. […] To determine the Ki, the Km values were plotted as a function of the inhibitor concentration, and the Ki was calculated by dividing the y axis intercept with the slope of the linear fit. This value corresponds to the negative of the x axis intercept. Alternatively, the substrate saturation curves obtained in the absence and presence of the increasing inhibitor concentrations were globally fitted to the competitive inhibition equation y = vmax × (x/[KmObs+ x]), where y is the reaction velocity, vmax is the maximal velocity, x is the substrate concentration, and KmObs = Km × (1 + [I]/Ki), where [I] is the inhibitor concentration. Experiments were performed 3 times and each experiment was analyzed separately. […] Kinetic analysis was performed with the Prism 8 program (GraphPad).

[2] = target: T2, human trypsin isoform PRSS2 (anionic trypsin), recombinant (Homo sapiens, UniProt P07478); test: as above; details: for kcat: GPR-pNA, 24°C; for Ki: Ki benzamidine, mean ± SD, n = 3
T2 construct: made in house; host or cells: Escherichia coli BL21(DE3)
Method: as §1, §2, §3

[3] = target: T3, human trypsin isoform PRSS3 (mesotrypsin) (Homo sapiens, UniProt P35030); test: as above; details: for kcat: GPR-pNA, 24°C; for Ki: Ki benzamidine, mean ± SD, n = 3
T3 construct: made in house; host or cells: Escherichia coli BL21(DE3)
T3 sequence (P35030 81-304 limits assumed): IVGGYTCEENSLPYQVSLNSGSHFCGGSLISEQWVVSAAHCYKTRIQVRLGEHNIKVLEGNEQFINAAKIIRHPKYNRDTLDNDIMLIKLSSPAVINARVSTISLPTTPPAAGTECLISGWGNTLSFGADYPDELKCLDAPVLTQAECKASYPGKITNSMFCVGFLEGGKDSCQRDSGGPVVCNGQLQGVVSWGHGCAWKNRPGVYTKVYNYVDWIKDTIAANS
Method: as §1, §2, §3

[4] = target: T4, mouse trypsin isoform T20 (anionic trypsin) (Mus musculus, UniProt P07146); test: as above; details: for kcat: GPR-pNA, 24°C; for Ki: Ki benzamidine, mean ± SD, n = 3
T4 construct: made in house; host or cells: Escherichia coli BL21(DE3)
T4 sequence (P07146 24-246): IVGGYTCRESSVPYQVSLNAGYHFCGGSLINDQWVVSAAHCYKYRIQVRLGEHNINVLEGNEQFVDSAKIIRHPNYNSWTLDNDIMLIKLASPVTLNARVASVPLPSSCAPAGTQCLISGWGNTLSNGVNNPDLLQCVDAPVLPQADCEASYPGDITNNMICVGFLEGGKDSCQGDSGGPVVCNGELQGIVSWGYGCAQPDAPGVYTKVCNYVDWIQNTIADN
Method: as §1, §2, §3

[5] = target: T5, sulfated human trypsin PRSS1-SO4 purified from pancreatic juice (Homo sapiens, UniProt P07477); test: as above; details: for kcat: GPR-pNA, 24°C; for Ki: Ki benzamidine, mean ± SD, n = 3
T5 construct: from tissue; host or cells: human pancreatic juice
Method: as §1, §2, §3

[6] = target: T6, sulfated human trypsin PRSS2-SO4 purified from pancreatic juice (Homo sapiens, UniProt P07478); test: as above; details: for kcat: GPR-pNA, 24°C; for Ki: Ki benzamidine, mean ± SD, n = 3
T6 construct: from tissue; host or cells: human pancreatic juice
Method: as §1, §2, §3

[7] = target: mouse trypsin isoform T9 (anionic trypsin) (Mus musculus, UniProt Q9QUK9); test: biochemical; details: for kcat: GPR-pNA, 24°C
Method: as §1, §2, §3

T2 sequence (P07478 24-247): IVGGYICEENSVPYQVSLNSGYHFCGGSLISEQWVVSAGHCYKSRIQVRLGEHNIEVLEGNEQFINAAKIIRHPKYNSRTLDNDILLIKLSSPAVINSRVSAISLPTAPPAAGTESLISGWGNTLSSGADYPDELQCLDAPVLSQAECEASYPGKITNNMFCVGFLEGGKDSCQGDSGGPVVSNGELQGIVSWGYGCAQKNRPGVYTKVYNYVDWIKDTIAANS
T6 sequence (P07478 24-247): as above
Chain of mouse trypsin isoform T9 (anionic trypsin) (Q9QUK9 24-246): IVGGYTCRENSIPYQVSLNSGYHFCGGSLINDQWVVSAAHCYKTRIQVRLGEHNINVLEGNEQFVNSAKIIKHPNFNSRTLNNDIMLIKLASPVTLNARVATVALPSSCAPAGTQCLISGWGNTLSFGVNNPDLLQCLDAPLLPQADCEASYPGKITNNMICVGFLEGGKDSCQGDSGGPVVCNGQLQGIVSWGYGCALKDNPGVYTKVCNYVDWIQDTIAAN

N=C(N)c1ccccc1 [benzamidine]
kcat ([1]; 25 μM benzamidine): 134.8 ± 1.7 per second | kcat ([1]; 50 μM benzamidine): 121 ± 3.3 per second | kcat ([1]; 75 μM benzamidine): 136.3 ± 9.2 per second | kcat ([1]; 100 μM benzamidine): 143.2 ± 8.1 per second | Ki ([1]; Global fit): 22.5 ± 4 µM | Ki ([1]; Individual fit): 15.7 ± 4.7 µM | kcat ([2]; 25 μM benzamidine): 78.7 ± 1.7 per second | kcat ([2]; 50 μM benzamidine): 78.4 ± 1.8 per second | kcat ([2]; 75 μM benzamidine): 82.1 ± 2.4 per second | kcat ([2]; 100 μM benzamidine): 78.3 ± 4.5 per second | Ki ([2]; Global fit): 8.9 ± 0.7 µM | Ki ([2]; Individual fit): 8.6 ± 2.2 µM | kcat ([3]; 25 μM benzamidine): 211.9 ± 8.6 per second | kcat ([3]; 50 μM benzamidine): 214.2 ± 4.7 per second | kcat ([3]; 75 μM benzamidine): 201.3 ± 8 per second | kcat ([3]; 100 μM benzamidine): 205.7 ± 6.3 per second | Ki ([3]; Global fit): 13.3 ± 0.8 µM | Ki ([3]; Individual fit): 15.5 ± 2.3 µM | kcat ([4]; 12.5 μM benzamidine): 65 ± 1 per second | kcat ([4]; 25 μM benzamidine): 62.1 ± 1.8 per second | kcat ([4]; 37.5 μM benzamidine): 64.7 ± 2.1 per second | kcat ([4]; 50 μM benzamidine): 65.6 ± 2.1 per second | Ki ([4]; Global fit): 7.6 ± 0.5 µM | Ki ([4]; Individual fit): 6.9 ± 1.1 µM | kcat ([5]; 12.5 μM benzamidine): 104.1 ± 2.8 per second | kcat ([5]; 25 μM benzamidine): 112.1 ± 4.9 per second | kcat ([5]; 37.5 μM benzamidine): 108.4 ± 5.3 per second | kcat ([5]; 50 μM benzamidine): 113.6 ± 7.2 per second | Ki ([5]; Global fit): 10.5 ± 0.9 µM | Ki ([5]; Individual fit): 8.3 ± 2.2 µM | kcat ([6]; 12.5 μM benzamidine): 64.8 ± 1.6 per second | kcat ([6]; 25 μM benzamidine): 64.3 ± 1.4 per second | kcat ([6]; 37.5 μM benzamidine): 64.5 ± 1.5 per second | kcat ([6]; 50 μM benzamidine): 69.3 ± 0.3 per second | Ki ([6]; Global fit): 4.2 ± 0.7 µM | Ki ([6]; Individual fit): 3.3 ± 0.5 µM | kcat ([7]; 12.5 μM benzamidine): 110 ± 3.4 per second | kcat ([7]; 25 μM benzamidine): 111.4 ± 2.8 per second | kcat ([7]; 37.5 μM benzamidine): 114.8 ± 2.8 per second | kcat ([7]; 50 μM benzamidine): 112.3 ± 4.5 per second | Ki ([7]; mean ± SD, n = 3): 6.8 ± 1 µM
